Data taken from patent US20240384268A1, “Oligonucleotides” (Hudson Institute of Medical Research, priority 2021, published 2024).

Molecular target: T1, TLR8 (Homo sapiens, UniProt Q9NR97)
T1 sequence (Q9NR97 27-1041): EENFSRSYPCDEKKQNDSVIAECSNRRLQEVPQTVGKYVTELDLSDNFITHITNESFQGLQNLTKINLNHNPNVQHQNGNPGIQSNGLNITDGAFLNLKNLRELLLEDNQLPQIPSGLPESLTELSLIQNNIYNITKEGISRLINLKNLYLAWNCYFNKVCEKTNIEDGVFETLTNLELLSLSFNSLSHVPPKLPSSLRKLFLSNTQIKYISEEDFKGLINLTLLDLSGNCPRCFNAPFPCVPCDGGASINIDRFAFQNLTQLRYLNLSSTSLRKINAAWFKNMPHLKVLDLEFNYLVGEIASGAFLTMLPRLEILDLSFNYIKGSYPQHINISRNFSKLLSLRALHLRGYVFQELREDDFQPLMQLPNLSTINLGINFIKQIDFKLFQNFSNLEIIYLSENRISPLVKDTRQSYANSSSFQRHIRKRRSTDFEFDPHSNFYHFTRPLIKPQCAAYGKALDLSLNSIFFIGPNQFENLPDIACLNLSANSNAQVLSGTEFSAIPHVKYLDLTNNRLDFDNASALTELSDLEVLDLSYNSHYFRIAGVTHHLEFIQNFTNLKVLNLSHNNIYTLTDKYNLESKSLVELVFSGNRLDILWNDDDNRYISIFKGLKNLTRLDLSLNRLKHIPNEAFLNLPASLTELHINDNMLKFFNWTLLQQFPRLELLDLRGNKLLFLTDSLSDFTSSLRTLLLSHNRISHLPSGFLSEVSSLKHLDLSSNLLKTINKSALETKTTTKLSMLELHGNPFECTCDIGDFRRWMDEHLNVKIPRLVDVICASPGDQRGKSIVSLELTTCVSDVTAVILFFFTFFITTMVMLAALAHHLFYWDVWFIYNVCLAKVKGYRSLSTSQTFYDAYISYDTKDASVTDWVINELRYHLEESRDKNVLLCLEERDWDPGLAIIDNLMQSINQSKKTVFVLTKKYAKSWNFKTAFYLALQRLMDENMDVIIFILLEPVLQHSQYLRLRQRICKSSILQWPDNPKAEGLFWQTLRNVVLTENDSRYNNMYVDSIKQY
Test: HEK-TLR8 NF-κB-luciferase reporter, R848 or Motolimod stimulation (potentiation or inhibition)
Format: cell-based
Set-up: expressed in transfected cells; host or cells: 293XLhTLR8 (HEK293)
Conditions: averaged NF-κB-Luciferase relative to R848 condition (fold increase); for TLR8 100 nM: MOE-modified ASO at 100 nM; for TLR8 500 nM: MOE-modified ASO at 500 nM

How did the “TLR8 100 nM” value turn out when “GTCCTTGCACGTGGCTTCGT (antisense; 2'-MOE modified, pattern not given here) [EGFR-1013 MOE]” was run?
Its value is 1.900.

What about the “TLR8 500 nM” value of the same sequence?
The value was 1.593.

How did the “TLR8 100 nM” value turn out when “GTCTTGGCTTCGTGGAGCAG (antisense; 2'-MOE modified, pattern not given here) [MB21D1-520 MOE]” was run?
Its value is 2.383.

And the “TLR8 500 nM” value?
Its value is 3.536.

Which results are given for “GTGTCCTTGCACGTGGCTTC (antisense; 2'-MOE modified, pattern not given here) [EGFR-1015 MOE]”?
TLR8 100 nM: 1.383; TLR8 500 nM: 1.274

For “GTGTCTTCATCGGCCCTGCC (antisense; 2'-MOE modified, pattern not given here) [CAMSAP1-2113 MOE]”, which “TLR8 100 nM” value is on record?
Its value is 1.247.

What about the “TLR8 500 nM” value of the same sequence?
The value was 1.093.

Which “TLR8 100 nM” value does the source give for “TAGGCACTTTGCCTCCTTCT (antisense; 2'-MOE modified, pattern not given here) [EGFR-2859 MOE]” here?
Its value is 0.773.

What about the “TLR8 500 nM” value of the same sequence?
The value was 0.884.

For “TAGTCAAGGGCATATCCTAC (antisense; 2'-MOE modified, pattern not given here) [HPRT-732 MOE]”, which “TLR8 100 nM” value is on record?
The value was 1.457.

And the “TLR8 500 nM” value?
The value was 2.087.

What does the source list for “TCAAAGGACTGAGGAAAGGG (antisense; 2'-MOE modified, pattern not given here) [CAMSAP1-6273 MOE]”?
TLR8 100 nM: 3.896; TLR8 500 nM: 3.406

What does the source list for “TCCAACACTTCGTGGGGTCC (antisense; 2'-MOE modified, pattern not given here) [HPRT-667 MOE]”?
TLR8 100 nM: 1.142; TLR8 500 nM: 1.432

With “TCGCACTTCAGTCTGAGCAG (antisense; 2'-MOE modified, pattern not given here) [MB21D1-719 MOE]” as the sequence, how does the “TLR8 100 nM” value read?
Its value is 1.697.

What about the “TLR8 500 nM” value of the same sequence?
The value was 2.158.

For “TGTCCTTGCACGTGGCTTCG (antisense; 2'-MOE modified, pattern not given here) [EGFR-1014 MOE]”, which “TLR8 100 nM” value is on record?
Its value is 1.187.

And the “TLR8 500 nM” value?
The value was 1.433.

How did the “TLR8 100 nM” value turn out when “TGTCTTCATCGGCCCTGCCT (antisense; 2'-MOE modified, pattern not given here) [CAMSAP1-2112 MOE]” was run?
Its value is 1.331.

And the “TLR8 500 nM” value?
The value was 1.178.

How did the “TLR8 100 nM” value turn out when “TGTGATGGCCTCCCATCTCC (antisense; 2'-MOE modified, pattern not given here) [HPRT-332 MOE]” was run?
Its value is 0.940.

And the “TLR8 500 nM” value?
The value was 0.938.

For “TTCTGCAGCTTCCTTGTCCT (antisense; 2'-MOE modified, pattern not given here) [CTNN2B-2136 MOE]”, which “TLR8 100 nM” value is on record?
The value was 2.049.

And the “TLR8 500 nM” value?
Its value is 2.408.

How did the “TLR8 100 nM” value turn out when “TTGCACACTTCGTACCCAAA (antisense; 2'-MOE modified, pattern not given here) [CAMSAP1-4915 MOE]” was run?
The value was 1.555.

What about the “TLR8 500 nM” value of the same sequence?
Its value is 1.972.

How did the “TLR8 100 nM” value turn out when “TTGCCATGCTGGCTCGGACT (antisense; 2'-MOE modified, pattern not given here) [CAMSAP1-2584 MOE]” was run?
The value was 0.881.

What about the “TLR8 500 nM” value of the same sequence?
Its value is 0.572.

“TTGGCTCGGCTTGCCTACTT (antisense; 2'-MOE modified, pattern not given here) [CAMSAP1-5594 MOE]” was tested. Which “TLR8 100 nM” value did it give?
Its value is 1.096.

And the “TLR8 500 nM” value?
Its value is 0.813.
